# Literature values, collected in US20130225560A1, “Treatment of Cognitive Disorders with Certain Alpha-7 Nicotinic Acid Receptor Agonists in Combination with Acetylcholinesterase Inhibitors” (priority 2010, published 2013).
# How the values were obtained:
# [1] = system: other nicotinic receptors
# [2] = system: murine model that exhibits aspects of schizophrenia; details: alone and in combination with clozapine; Hauser et al. 2009
# alpha-7 receptor [3] = molecular target: T1, alpha-7 receptor (Homo sapiens, UniProt P36544)
# alpha-7 receptor [4] = molecular target: T1, alpha-7 receptor; remark: listed apart in the source
# T1 sequence (P36544 23-502): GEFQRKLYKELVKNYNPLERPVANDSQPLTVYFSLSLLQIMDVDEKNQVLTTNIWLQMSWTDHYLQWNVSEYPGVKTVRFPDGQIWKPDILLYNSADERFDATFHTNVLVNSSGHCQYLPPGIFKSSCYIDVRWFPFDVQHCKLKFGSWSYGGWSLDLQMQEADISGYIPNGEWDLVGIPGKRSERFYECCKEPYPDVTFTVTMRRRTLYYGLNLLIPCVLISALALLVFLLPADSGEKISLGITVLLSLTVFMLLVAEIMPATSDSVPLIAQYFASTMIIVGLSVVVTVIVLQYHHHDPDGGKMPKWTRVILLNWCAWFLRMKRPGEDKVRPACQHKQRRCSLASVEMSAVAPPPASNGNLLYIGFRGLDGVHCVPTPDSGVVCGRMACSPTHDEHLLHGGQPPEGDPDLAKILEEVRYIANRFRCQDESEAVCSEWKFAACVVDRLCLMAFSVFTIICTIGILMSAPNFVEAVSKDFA
smiles,measurement,setting,value
"O=C(NC1C2CCN(CC2)C1Cc1cccnc1)c1cc2ccccc2o1 (centres unmarked) [TC-5619, N-[2-(pyridin-3-ylmethyl)-1-azabicyclo[2.2.2]oct-3-yl]-1-benzofuran-2-carboxamide]",activity at other nicotinic receptors,[1],little or no activity
same,"impaired pre-pulse inhibition (PPI), models positive symptoms",[2],correct impaired pre-pulse inhibition (PPI)
same,"impaired social behavior, models negative symptoms",[2],correct impaired pre-pulse inhibition (PPI) and social behavior
same,agonist activity at the alpha-7 receptor,alpha-7 receptor [3],full agonist
same,affinity for the alpha-7 receptor,alpha-7 receptor [4],very high affinity
